Source: ChEMBL document CHEMBL1201862, “PubChem BioAssay data set” (2004)
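All cell lines were grown in 96-well plates and treated with compound for 48 hours. Here, GI50 denotes the concentration required for 50% inhibition of growth.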 Active and inactive are the calls of the source. Cut-off read from the data, not from the text of the source: active = GI50 up to about 1.1 µM and inactive = higher.

What was measured:
Experiment in all cases: inhibition of tumour cell growth, NCI panel, 48 h
[1] = tested on: U-251
[2] = tested on: DU-145
[3] = tested on: HCT-116
[4] = tested on: Hs-578T
[5] = tested on: HOP-62
[6] = tested on: SK-MEL-5
[7] = tested on: SK-OV-3
[8] = tested on: K562
[9] = tested on: OVCAR-3
[10] = tested on: TK-10
[11] = tested on: SNB-75
[12] = tested on: IGROV-1
[13] = tested on: CCRF-CEM
[14] = tested on: SR
[15] = tested on: UACC-257
[16] = tested on: 786-0
[17] = tested on: COLO 205
[18] = tested on: NCI-H460
[19] = tested on: EKVX
[20] = tested on: RXF 393
[21] = tested on: UACC-62
[22] = tested on: MCF7
[23] = tested on: UO-31
[24] = tested on: HCT-15
[25] = tested on: SF-539
[26] = tested on: ACHN
[27] = tested on: OVCAR-8
[28] = tested on: A498
[29] = tested on: HL-60
[30] = tested on: HOP-92
[31] = tested on: OVCAR-5
[32] = tested on: NCI/ADR-RES
[33] = tested on: SNB-19
[34] = tested on: SK-MEL-28
[35] = tested on: A549
[36] = tested on: NCI-H522
[37] = tested on: SN12C
[38] = tested on: SF-268
[39] = tested on: M14
[40] = tested on: OVCAR-4
[41] = tested on: KM12
[42] = tested on: SF-295
[43] = tested on: SW-620
[44] = tested on: T47D
[45] = tested on: MOLT-4
[46] = tested on: HCC 2998
[47] = tested on: NCI-H23
[48] = tested on: PC-3
[49] = tested on: MDA-MB-435
[50] = tested on: HT-29
[51] = tested on: CAKI-1
[52] = tested on: Malme-3M
[53] = tested on: LOX IMVI
[54] = tested on: SK-MEL-2
[55] = tested on: MDA-MB-231
[56] = tested on: RPMI-8226
[57] = tested on: NCI-H226
[58] = tested on: MDA-N

## Cn1ccnc1S/C(=C\C=C(C#N)C#N)c1ccc(Cl)cc1
[1]
  GI50: 2.82 µM (inactive)
[2]
  GI50: 6.04 µM (inactive)
[3]
  GI50: 0.324 µM (active)
[4]
  GI50: 4.38 µM (inactive)
[5]
  GI50: 4.17 µM (inactive)
[6]
  GI50: 1.13 µM (inactive)
[7]
  GI50: 8.07 µM (inactive)
[8]
  GI50: 0.252 µM (active)
[9]
  GI50: 2.22 µM (inactive)
[10]
  GI50: 0.492 µM (active)
[11]
  GI50: 5.37 µM (inactive)
[12]
  GI50: 2.69 µM (inactive)
[13]
  GI50: 0.126 µM (active)
[14]
  GI50: 0.143 µM (active)
[15]
  GI50: 2.1 µM (inactive)
[16]
  GI50: 1.33 µM (inactive)
[17]
  GI50: 2.99 µM (inactive)
[18]
  GI50: 7.33 µM (inactive)
[19]
  GI50: 7.89 µM (inactive)
[20]
  GI50: 1.84 µM (inactive)
[21]
  GI50: 2.34 µM (inactive)
[22]
  GI50: 0.698 µM (active)
[23]
  GI50: 2.64 µM (inactive)
[24]
  GI50: 2.52 µM
[25]
  GI50: 1.21 µM (inactive)
[26]
  GI50: 0.693 µM (active)
[27]
  GI50: 1.12 µM (active)
[28]
  GI50: 1.27 µM (inactive)
[29]
  GI50: 0.461 µM (active)
[30]
  GI50: 1.31 µM (inactive)
[31]
  GI50: 2.31 µM (inactive)
[32]
  GI50: 2.22 µM (inactive)
[33]
  GI50: 3.48 µM (inactive)
[34]
  GI50: 4.06 µM (inactive)
[35]
  GI50: 6.27 µM (inactive)
[36]
  GI50: 2.45 µM (inactive)
[37]
  GI50: 1.09 µM (active)
[38]
  GI50: 1.84 µM (inactive)
[39]
  GI50: 0.993 µM (active)
[40]
  GI50: 4.09 µM (inactive)
[41]
  GI50: 2.06 µM (inactive)
[42]
  GI50: 2.87 µM (inactive)
[43]
  GI50: 0.303 µM (active)
[44]
  GI50: 4.42 µM (inactive)
[45]
  GI50: 1.18 µM (inactive)
[46]
  GI50: 4.92 µM (inactive)
[47]
  GI50: 1.61 µM (inactive)
[48]
  GI50: 1.6 µM (inactive)
[49]
  GI50: 0.951 µM (active)
[50]
  GI50: 1.67 µM (inactive)
[51]
  GI50: 1.69 µM (inactive)
[52]
  GI50: 1.04 µM (active)

## CSCCCS/C1=C/CCCCCCCCCC1
[1]
  GI50: > 100 µM (inactive)
[2]
  GI50: > 100 µM (inactive)
[3]
  GI50: > 100 µM (inactive)
[4]
  GI50: > 100 µM (inactive)
[5]
  GI50: > 100 µM (inactive)
[53]
  GI50: > 100 µM (inactive)
[6]
  GI50: > 100 µM (inactive)
[7]
  GI50: > 100 µM (inactive)
[8]
  GI50: > 100 µM (inactive)
[54]
  GI50: > 100 µM (inactive)
[9]
  GI50: > 100 µM (inactive)
[10]
  GI50: > 100 µM (inactive)
[11]
  GI50: 0.281 µM (active)
[12]
  GI50: > 100 µM (inactive)
[14]
  GI50: > 100 µM (inactive)
[15]
  GI50: > 100 µM (inactive)
[16]
  GI50: > 100 µM (inactive)
[17]
  GI50: > 100 µM (inactive)
[18]
  GI50: > 100 µM (inactive)
[19]
  GI50: > 100 µM (inactive)
[20]
  GI50: > 100 µM (inactive)
[21]
  GI50: > 100 µM (inactive)
[22]
  GI50: > 100 µM (inactive)
[23]
  GI50: > 100 µM (inactive)
[24]
  GI50: > 100 µM
[25]
  GI50: > 100 µM (inactive)
[55]
  GI50: > 100 µM (inactive)
[56]
  GI50: > 100 µM (inactive)
[26]
  GI50: > 100 µM (inactive)
[28]
  GI50: > 100 µM (inactive)
[29]
  GI50: > 100 µM (inactive)
[30]
  GI50: > 100 µM (inactive)
[31]
  GI50: > 100 µM (inactive)
[32]
  GI50: > 100 µM (inactive)
[33]
  GI50: > 100 µM (inactive)
[34]
  GI50: > 100 µM (inactive)
[35]
  GI50: > 100 µM (inactive)
[57]
  GI50: > 100 µM (inactive)
[37]
  GI50: > 100 µM (inactive)
[58]
  GI50: > 100 µM (inactive)
[38]
  GI50: > 100 µM (inactive)
[39]
  GI50: > 100 µM (inactive)
[40]
  GI50: > 100 µM (inactive)
[41]
  GI50: > 100 µM (inactive)
[42]
  GI50: > 100 µM (inactive)
[44]
  GI50: > 100 µM (inactive)
[45]
  GI50: > 100 µM (inactive)
[46]
  GI50: > 100 µM (inactive)
[47]
  GI50: > 100 µM (inactive)
[48]
  GI50: > 100 µM (inactive)
[49]
  GI50: > 100 µM (inactive)
[50]
  GI50: > 100 µM (inactive)
[51]
  GI50: > 100 µM (inactive)
[52]
  GI50: > 100 µM (inactive)

## COc1cc(OC)c(C2c3cc4c(cc3OC(N3CCOCC3)C2C)OCO4)c(OC)c1 (stereo not drawn)
[2]
  GI50: 21.5 µM (inactive)
[3]
  GI50: 7.4 µM (inactive)
[4]
  GI50: 2.45 µM (inactive)
[5]
  GI50: > 100 µM (inactive)
[53]
  GI50: 23.2 µM (inactive)
[6]
  GI50: 47 µM (inactive)
[8]
  GI50: 40.8 µM (inactive)
[54]
  GI50: > 100 µM (inactive)
[9]
  GI50: 7.29 µM (inactive)
[10]
  GI50: > 100 µM (inactive)
[11]
  GI50: 16.4 µM (inactive)
[12]
  GI50: 22.1 µM (inactive)
[13]
  GI50: 33.8 µM (inactive)
[14]
  GI50: 18 µM (inactive)
[15]
  GI50: 78.7 µM (inactive)
[16]
  GI50: 40.7 µM (inactive)
[17]
  GI50: 35.2 µM (inactive)
[18]
  GI50: 16.4 µM (inactive)
[19]
  GI50: 80.5 µM (inactive)
[21]
  GI50: 29.9 µM (inactive)
[22]
  GI50: 37.8 µM (inactive)
[23]
  GI50: 16.5 µM (inactive)
[24]
  GI50: 17.4 µM
[25]
  GI50: 12.3 µM (inactive)
[56]
  GI50: 20.2 µM (inactive)
[26]
  GI50: 12.3 µM (inactive)
[27]
  GI50: 43.6 µM (inactive)
[31]
  GI50: 65.5 µM (inactive)
[32]
  GI50: 34.8 µM (inactive)
[33]
  GI50: 28.7 µM (inactive)
[34]
  GI50: > 100 µM (inactive)
[35]
  GI50: 45.9 µM (inactive)
[36]
  GI50: > 100 µM (inactive)
[37]
  GI50: 67 µM (inactive)
[58]
  GI50: 72.6 µM (inactive)
[38]
  GI50: 20.5 µM (inactive)
[39]
  GI50: 53.1 µM (inactive)
[41]
  GI50: 24.5 µM (inactive)
[42]
  GI50: 14.7 µM (inactive)
[43]
  GI50: 23.4 µM (inactive)
[44]
  GI50: 17.7 µM (inactive)
[45]
  GI50: 21.4 µM (inactive)
[46]
  GI50: > 100 µM (inactive)
[47]
  GI50: > 100 µM (inactive)
[48]
  GI50: 42.3 µM (inactive)
[49]
  GI50: 38.7 µM (inactive)
[50]
  GI50: 21.9 µM (inactive)
